# pIC50: −log10 of the molar value.
# System: 922993-354-T-J3-PDC complex spheroids, viability
# Experiment: Anticancer human tumor 922993-354-T-J3-PDC patient-derived endometrial carcinoma cell line growth inhibition [GQUAD]
# Settings: for pIC50: curve of first compound; for viability, T/C: stronger effect = lower value
# Source text: DNA G-quadruplex Stabilizer Agents in Combinations in Complex Spheroids
# A high-throughput screen of multi-cell type tumor spheroids was designed to identify active combinations of DNA G-quadruplex stabilizer agents and targeted small molecules. Complex spheroids include a stromal component modeled by human endothelial cells (HUVEC) and fibroblasts modeled by human mesenchymal stem cells (MSCs). The concentration ranges selected for each drug and investigational agent were based upon clinically achievable concentrations if the clinical Cmax of the agent was known.
# Compounds. The drugs and investigational agents: pidnarulex (CX-5461; NSC782164), APTO-253 (NSC789042), BRACO-19 (NSC847499), peposertib (NSC802822), ceralasertib (NSC780249), elimusertib (NSC800525), camonsertib (NSC841442), AZD-1390 (NSC803789), olaparib (NSC753686), talazoparib (NSC767125), ART-558 (NSC835418), sotorasib (NSC818433), MRTX-1133 (NSC836407), SN-38 (NSC673596), topotecan (NSC609699), etoposide (NSC141540), doxorubicin (NSC123127), gemcitabine (NSC613327), 5-fluorouracil (NSC19893), paclitaxel (NSC125973), vemurafenib (NSC761431), panobinostat (NSC761190), R-306465 (JNJ-16241199; NSC773264), adavosertib (NSC754352), TP-3654 (NSC805149), carboplatin (NSC241240), KSQ-4279 (NSC840948), and staurosporine (NSC755774) were obtained from the National Cancer Institute (NCI) Developmental Therapeutics Program Chemical Repository (34). The FDA-approved anticancer drug set is available from the NCI Developmental Therapeutics Program. […] The stock solutions were prepared in dimethyl sulfoxide (DMSO, Sigma-Aldrich, St. Louis, MO, cat. D2650) at 800-fold the tested concentration and stored at -70 degrees C prior to their use. All drugs and investigational agents were tested over a range starting from a high concentration at or near the clinical Cmax and decreasing in half-log increments. If the clinical Cmax for an agent had not been determined, the highest concentration tested was 10 microM.
# 2.3 Cell Culture. All cells were maintained in an incubator at 37 degrees C and 5% CO2 with 95% humidity. The PDC lines were cultured according to standard operating procedures established by the NCI PDMR. All PDCs were thawed and cultured in Matrigel-coated flasks prepared with a working solution of 1X Ham's F-12 nutrient mix, without supplementation (Invitrogen, cat. 11765054), 100 U/mL penicillin-streptomycin (Invitrogen, cat. 15140122), and 2.5% Matrigel (Corning Inc., cat. 354248) for the first three passages. The 857933-349-R-J2-PDC line was cultured in 6C/Colon 1B media, which includes advanced DMEM/F-12 (Thermo Fisher Scientific, cat. 12634028), 10 mM HEPES (Thermo Fisher Scientific, cat. 15630080), 1X GlutaMAX supplement (Thermo Fisher Scientific, cat. 35050061), 0.1 mg/mL primocin (InvivoGen, cat. ant-pm-2), 10% defined fetal bovine serum, heat inactivated (HyClone Laboratories Inc., cat. SH30070.03HI), 50% L-WRN conditioned media (ATCC, cat. CRL-3276), 1.25 mM N-Acetyl-L-cysteine (Sigma-Aldrich, cat. A9165), 10 mM nicotinamide (Sigma-Aldrich, cat. N0636), 1X B-27 supplement (Thermo Fisher Scientific, cat. 17504044), 1X N-2 supplement (Thermo Fisher Scientific, cat. 17502048), 10 microM Y-27632 dihydrochloride (Tocris Bioscience, cat. 1254), and 50 ng/mL human EGF recombinant protein (Thermo Fisher Scientific, cat. PHG0311). The 485176-168-R4-J1-PDC line was cultured in Panc media, which includes all 6C/Colon 1B media components plus 100 ng/mL human FGF-10 (Thermo Fisher Scientific, cat. 100-26), 500 nM SB-431542 (Selleckchem, cat. S1067), and gastrin (Tocris, cat. 3006).
# […]
# [1] = second compound 0.0316 µM, first compound 0.0316 µM
# [2] = second compound 0.0316 µM, first compound 0.316 µM
# [3] = second compound 0.1 µM, first compound 0.0316 µM
# [4] = second compound 0.1 µM, first compound 0.316 µM
# [5] = second compound 0.316 µM, first compound 0.0316 µM
# [6] = second compound 0.316 µM, first compound 0.316 µM
# [7] = second compound 1 µM, first compound 0.0316 µM
# [8] = second compound 1 µM, first compound 0.316 µM
# [9] = second compound 3.16 µM, first compound 0.0316 µM
# [10] = second compound 3.16 µM, first compound 0.316 µM
# [11] = second compound 10 µM, first compound 0.0316 µM
# [12] = second compound 10 µM, first compound 0.316 µM
# 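Further: spheroids exposed to compounds for seven days.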
# 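Wherever viability, T/C is given: 100% = DMSO vehicle control viability.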
smiles,measurement,setting,value
CC[C@@]1(O)C(=O)OCc2c1cc1n(c2=O)Cc2cc3c(CN(C)C)c(O)ccc3nc2-1 + CN(C)c1ccc(Nc2c3ccc(NC(=O)CCN4CCCC4)cc3nc3cc(NC(=O)CCN4CCCC4)ccc23)cc1,pIC50,second compound 0.0316 µM,6.55
same,pIC50,second compound 0.1 µM,< 6.50
same,pIC50,second compound 0.316 µM,6.54
same,pIC50,second compound 1 µM,6.58
same,pIC50,second compound 3.16 µM,6.52
same,pIC50,second compound 10 µM,< 6.50
same,"viability, T/C","second compound 0.0316 µM, first compound 0.000999 µM",100%
same,"viability, T/C","second compound 0.0316 µM, first compound 0.00316 µM",74.3%
same,"viability, T/C","second compound 0.0316 µM, first compound 0.00999 µM",99.8%
same,"viability, T/C",[1],91.9%
same,"viability, T/C","second compound 0.0316 µM, first compound 0.0999 µM",77.3%
same,"viability, T/C",[2],46.6%
same,"viability, T/C","second compound 0.1 µM, first compound 0.000999 µM",120%
same,"viability, T/C","second compound 0.1 µM, first compound 0.00316 µM",110%
same,"viability, T/C","second compound 0.1 µM, first compound 0.00999 µM",89.3%
same,"viability, T/C",[3],82.7%
same,"viability, T/C","second compound 0.1 µM, first compound 0.0999 µM",88.9%
same,"viability, T/C",[4],43.4%
same,"viability, T/C","second compound 0.316 µM, first compound 0.000999 µM",90.5%
same,"viability, T/C","second compound 0.316 µM, first compound 0.00316 µM",98.4%
same,"viability, T/C","second compound 0.316 µM, first compound 0.00999 µM",79.2%
same,"viability, T/C",[5],84%
same,"viability, T/C","second compound 0.316 µM, first compound 0.0999 µM",92.5%
same,"viability, T/C",[6],46.2%
same,"viability, T/C","second compound 1 µM, first compound 0.000999 µM",100%
same,"viability, T/C","second compound 1 µM, first compound 0.00316 µM",106%
same,"viability, T/C","second compound 1 µM, first compound 0.00999 µM",97.7%
same,"viability, T/C",[7],94.5%
same,"viability, T/C","second compound 1 µM, first compound 0.0999 µM",76.8%
same,"viability, T/C",[8],45.1%
same,"viability, T/C","second compound 3.16 µM, first compound 0.000999 µM",101%
same,"viability, T/C","second compound 3.16 µM, first compound 0.00316 µM",109%
same,"viability, T/C","second compound 3.16 µM, first compound 0.00999 µM",99.6%
same,"viability, T/C",[9],117%
same,"viability, T/C","second compound 3.16 µM, first compound 0.0999 µM",115%
same,"viability, T/C",[10],47.6%
same,"viability, T/C","second compound 10 µM, first compound 0.000999 µM",109%
same,"viability, T/C","second compound 10 µM, first compound 0.00316 µM",115%
same,"viability, T/C","second compound 10 µM, first compound 0.00999 µM",110%
same,"viability, T/C",[11],97.3%
same,"viability, T/C","second compound 10 µM, first compound 0.0999 µM",115%
same,"viability, T/C",[12],59.4%
COc1cc(C2c3cc4c(cc3C(OC3OC5COC(C)OC5C(O)C3O)C3COC(=O)C23)OCO4)cc(OC)c1O (centres undefined) + CN(C)c1ccc(Nc2c3ccc(NC(=O)CCN4CCCC4)cc3nc3cc(NC(=O)CCN4CCCC4)ccc23)cc1,pIC50,second compound 0.0316 µM,< 5.00
same,pIC50,second compound 0.1 µM,5.02
same,pIC50,second compound 0.316 µM,5.04
same,pIC50,second compound 1 µM,5.05
same,pIC50,second compound 3.16 µM,< 5.00
same,pIC50,second compound 10 µM,< 5.00
same,"viability, T/C",[1],116%
same,"viability, T/C","second compound 0.0316 µM, first compound 0.1 µM",90%
same,"viability, T/C",[2],90.7%
same,"viability, T/C","second compound 0.0316 µM, first compound 1 µM",88.1%
same,"viability, T/C","second compound 0.0316 µM, first compound 3.16 µM",72.5%
same,"viability, T/C","second compound 0.0316 µM, first compound 10 µM",58.3%
same,"viability, T/C",[3],109%
same,"viability, T/C","second compound 0.1 µM, first compound 0.1 µM",102%
same,"viability, T/C",[4],91.3%
same,"viability, T/C","second compound 0.1 µM, first compound 1 µM",85.2%
same,"viability, T/C","second compound 0.1 µM, first compound 3.16 µM",81.1%
same,"viability, T/C","second compound 0.1 µM, first compound 10 µM",46.3%
same,"viability, T/C",[5],90.6%
same,"viability, T/C","second compound 0.316 µM, first compound 0.1 µM",101%
same,"viability, T/C",[6],83.7%
same,"viability, T/C","second compound 0.316 µM, first compound 1 µM",79.5%
same,"viability, T/C","second compound 0.316 µM, first compound 3.16 µM",82.9%
same,"viability, T/C","second compound 0.316 µM, first compound 10 µM",46.9%
same,"viability, T/C",[7],79.7%
same,"viability, T/C","second compound 1 µM, first compound 0.1 µM",79.7%
same,"viability, T/C",[8],105%
same,"viability, T/C","second compound 1 µM, first compound 1 µM",71.5%
same,"viability, T/C","second compound 1 µM, first compound 3.16 µM",95.8%
same,"viability, T/C","second compound 1 µM, first compound 10 µM",46.1%
same,"viability, T/C",[9],109%
same,"viability, T/C","second compound 3.16 µM, first compound 0.1 µM",99.3%
same,"viability, T/C",[10],114%
same,"viability, T/C","second compound 3.16 µM, first compound 1 µM",98.5%
same,"viability, T/C","second compound 3.16 µM, first compound 3.16 µM",91.8%
same,"viability, T/C","second compound 3.16 µM, first compound 10 µM",58.3%
same,"viability, T/C",[11],94.4%
same,"viability, T/C","second compound 10 µM, first compound 0.1 µM",106%
same,"viability, T/C",[12],111%
same,"viability, T/C","second compound 10 µM, first compound 1 µM",79.3%
same,"viability, T/C","second compound 10 µM, first compound 3.16 µM",106%
same,"viability, T/C","second compound 10 µM, first compound 10 µM",70.5%

# Source: PubChem BioAssay AID2060489 (Molecular Pharmacology Branch, DTP, NCI, 2025)
